Settings: Liquid; for viscosity: Capillary tube (Ostwald / Ubbelohde) method; for mass density: Vibrating tube method

CCCCCCCCO [octan-1-ol]
Settings	mass density [kg/m3]	viscosity [mPa·s]
298.15 K, 2000 kPa	823.6	7.363
298.15 K, 4010 kPa	824.8	7.542
298.15 K, 6000 kPa	826	7.702
298.15 K, 8000 kPa	827.2	7.865
298.15 K, 10000 kPa	828.4	8.031
298.15 K, 13010 kPa	830.1	8.3
298.15 K, 16010 kPa	831.8	8.568
298.15 K, 18990 kPa	833.4	8.825
298.15 K, 22010 kPa	835	9.112
298.15 K, 25010 kPa	836.6	9.397
298.15 K, 28010 kPa	838.3	9.668
298.15 K, 30010 kPa	839.3	9.866
303.15 K, 1990 kPa	819.4	6.327
303.15 K, 3990 kPa	820.6	6.481
303.15 K, 5980 kPa	821.9	6.632
303.15 K, 10010 kPa	824.4	6.941
303.15 K, 16020 kPa	827.9	7.4
303.15 K, 19030 kPa	829.7	7.63
303.15 K, 25000 kPa	833	8.087
303.15 K, 29980 kPa	835.6	8.468
303.16 K, 7980 kPa	823.1	6.785
303.16 K, 13000 kPa	826.2	7.169
303.16 K, 22010 kPa	831.3	7.858
303.16 K, 28000 kPa	834.6	8.316
313.15 K, 1970 kPa	812.3	4.516
313.15 K, 4000 kPa	813.6	4.627
313.15 K, 6010 kPa	815	4.737
313.15 K, 8000 kPa	816.3	4.846
313.15 K, 10010 kPa	817.5	4.955
313.15 K, 13030 kPa	819.4	5.12
313.15 K, 15980 kPa	821.2	5.281
313.15 K, 18990 kPa	823	5.446
313.15 K, 21990 kPa	824.8	5.61
313.15 K, 25000 kPa	826.5	5.774
313.15 K, 27980 kPa	828.2	5.937
313.15 K, 29990 kPa	829.3	6.047
323.15 K, 2010 kPa	805.6	3.262
323.15 K, 4010 kPa	807	3.348
323.15 K, 6010 kPa	808.4	3.427
323.15 K, 8000 kPa	809.7	3.499
323.15 K, 10010 kPa	811.1	3.573
323.15 K, 13020 kPa	813	3.688
323.15 K, 16020 kPa	814.9	3.797
323.15 K, 19010 kPa	816.8	3.91
323.15 K, 22000 kPa	818.6	4.03
323.15 K, 25010 kPa	820.4	4.149
323.15 K, 28010 kPa	822.1	4.264
323.15 K, 30020 kPa	823.3	4.343

From the NIST ThermoML archive (doi:10.1021/acs.jced.8b00812)
